Consider six compounds from patent US5140047A, “Lipoxygenase inhibitors” (SmithKline Beecham Corporation, priority 1991, dated 1992).

What is called ED50 is the dose that gives a 50% effect, or the effect in half of the subjects.

Each structure is given as a SMILES string. Like-named read-outs stand apart in the source and are kept apart here.

One experiment has as its system myocardial infarction. Particulars: dogs, Mullane et al. 1984; cited from earlier work.
Experiment [1] has as its system 5-LO activity (LTB4) in mouse whole blood. Nature of the experiment: Ex vivo mouse blood eicosanoid assay (LTB4, A23187 stimulated). The class given is in vivo, mouse (CD1). The conditions noted are these: po, per os; for inhibition at 10 mg/kg: read-out: ex vivo, % inh., heading: ex vivo, % inh., 30 min pre-treatment, mouse whole blood, A23187 60 uM. The procedure: In experiments when mice were used they were CD1 mice obtained from Charles River Breeding Laboratories, and within a single experiment the mice were age-matched. Their weight range was from 25 to 42 g. The test groups generally contained 3-6 animals.
Mice were pre-treated per os with vehicle or a test compound (dissolved in dimethylacetamide and diluted 1 to 10 with sesame oil) 30 minutes prior to removal of blood. The 5-lipoxygenase product LTB4, was extracted from whole blood following A23187 stimulation. Aliquots of pooled heparinized mouse blood (1 ml each aliquot) from male CD1 mice (Charles River) were placed into 4 ml polypropylene tubes. The tubes were preincubated for about five minutes at 37° C. A23187 (60 uM) was added to stimulate eicosanoid production. Several aliquots of blood were not stimulated and, thus, provided background levels for eicosanoid production. All tubes were incubated for about 30 minutes at 37° C. The blood samples were centrifuged at 400×g for about 15 minutes, and the plasma recovered for extraction. One volume of chilled acetonitrile was added to all at 5° C. The supernatants were recovered and diluted with 1% formic acid: 1% triethylamine to achieve a final concentration of 20% acetonitrile. These supernatants were then loaded onto the extraction cartridge that had been conditioned according to the Manufacturer's instructions (Solid Phase Extraction Columns, J. T. Baker, C18 3 ml size). The samples were washed with 3 ml of 1% formic acid: 1% triethylamine, air dried, and then washed with 3 ml of petroleum ether. After air drying again, the samples were eluted with methyl formate. The eluents were concentrated under vacuum. The concentrates were resuspended in 30% acetonitrile buffered with 50 mM ammonium acetate ([…]). The recovery of LTB4 was 60%. The 300 ul concentrates were assayed by radioreceptor assay for LTB4 by labortatory protocol.
Mean values for groups were calculated and percent inhibition was determined between the vehicle control mean and test group. […]

The test system of experiment [2] is human monocyte LTB4 production. As to the kind of experiment: LTB4 production from human monocytes in vitro (A23187 stimulated, RIA). The class given is cell-based. As to the method:
(§1) Human monocytes were prepared from leukosource packs supplied by the American Red Cross. The leukosource packs were fractionated by a two-step procedure described by F. Colatta et al. (J. Immunology 132: 936, 1984) that uses sedimentation on Ficoll followed by sedimentation on Percoll. The monocyte fraction that results from this technique was composed of 80-90% monocytes with the remainder being neutrophils and lymphocytes. In addition, significant number of platelets are present.
(§2) The monocytes (10^6 cells) were placed into polypropylene tubes and used as a suspended culture. The assay buffer consisted of RPMI 1640 buffer, 2 mM glutamine, 2.5 mM HEPES and 2 mM CaCl2 (total volume 0.475 ml). Compounds (0.005 ml) were added in DMSO, and the cells were preincubated for 10 minutes at 37° C. with constant agitation. A23187 (2 uM) was used to stimulate the cells. After an additional 10 minutes, the buffer was collected by centrifugation (2500×g for 15 minutes), and stored at -70° C. until assayed. LTB4 production was measured by radioimmunassay which was performed according to the manufacturer's (Advanced Magnetics, Boston, Mass.) instructions. PGE2 was determined using an RIA kit supplied by New England Nuclear (Boston, Mass.).

The subject of experiment [3] is human monocyte PGE2 production (cyclooxygenase activity). As to the kind of experiment: PGE2 production from human monocytes in vitro (A23187 stimulated, RIA). The class given is cell-based. Particulars: for IC50: Homo sapiens, Monocyte. The procedure:
as §1, §2

The subject of experiment [4] is eicosanoid production in human whole blood. As to the kind of experiment: Inhibition of eicosanoid production following calcium ionophore stimulation in human whole blood. The experiment is classed as cell-based. Particulars: calcium ionophore 60 μM. As to the method: The eicosanoids, which include the 5-lipoxygenase product LTB4, transLTB4, 20-hydroxyLTB4, 5-HETE, and the 12-lipoxygenase product are extracted from the whole blood following A23187 calcium ionophore stimulation. The extracts are separated by reverse phase high pressure liquid chromatography and quantified by absorbance methods.
Venous human blood is collected into polypropylene tubes containing 1% heparin. The blood is then aliquoted into 4.5 ml volumes and preincubated at 37° C. for 6 minutes in polypropylene tubes (15 ml size). Compound or carrier (10 μL dimethylsulfoxide) is added 6 minutes prior to stimulation. Calcium ionophore (0.5 ml) is added, and the blood incubated for 6 minutes. Prostaglandin B2 (1 nmole) is added, and the blood extracted as described below.
The samples are centrifuged at 1000×g for 15 minutes at 5° C. The plasma is collected, and one volume of acetonitrile is added to the plasma. This suspension is then centrifuged at 1000×g for 15 minutes at 5° C. The supernatant is collected and diluted with 1.5 volumes of chilled aqueous 1% formic acid. This mixture is loaded onto a preconditioned J. T. Baker C18 SPE cartridge (Phillipsburg, N.J.) at a flow rate of 1-2 ml/minute. (The cartridge is preconditioned according to manufacture's recommendations.) The absorbed sample is washed in the following order with three (3) ml each of (i) aqueous 1% formic acid: 1% triethylamine; and (ii) petroleum ether.
The eicosanoids are eluted in 3 ml of methyl formate. The solvent is removed under vacuum. The sample is resuspended in […] of 50% acetonitrile buffered with ammonium acetate. […]
The eicosanoids in the samples are verified by their retention times and their UV absorbance spectra. The peaks are quantified with reference to the internal standard and their absorbance response at their maximum absorbance wavelength.

For experiment [5], the target named is T1, 5-lipoxygenase (5-LO) isolated from extracts of RBL-1 cells (Rattus norvegicus, UniProt P12527).
T1 construct: isolated from extracts of RBL-1 cells; endogenous in cells; host or cells: RBL-1 cells (cell extract / supernatant)
T1 sequence (P12527 1-673): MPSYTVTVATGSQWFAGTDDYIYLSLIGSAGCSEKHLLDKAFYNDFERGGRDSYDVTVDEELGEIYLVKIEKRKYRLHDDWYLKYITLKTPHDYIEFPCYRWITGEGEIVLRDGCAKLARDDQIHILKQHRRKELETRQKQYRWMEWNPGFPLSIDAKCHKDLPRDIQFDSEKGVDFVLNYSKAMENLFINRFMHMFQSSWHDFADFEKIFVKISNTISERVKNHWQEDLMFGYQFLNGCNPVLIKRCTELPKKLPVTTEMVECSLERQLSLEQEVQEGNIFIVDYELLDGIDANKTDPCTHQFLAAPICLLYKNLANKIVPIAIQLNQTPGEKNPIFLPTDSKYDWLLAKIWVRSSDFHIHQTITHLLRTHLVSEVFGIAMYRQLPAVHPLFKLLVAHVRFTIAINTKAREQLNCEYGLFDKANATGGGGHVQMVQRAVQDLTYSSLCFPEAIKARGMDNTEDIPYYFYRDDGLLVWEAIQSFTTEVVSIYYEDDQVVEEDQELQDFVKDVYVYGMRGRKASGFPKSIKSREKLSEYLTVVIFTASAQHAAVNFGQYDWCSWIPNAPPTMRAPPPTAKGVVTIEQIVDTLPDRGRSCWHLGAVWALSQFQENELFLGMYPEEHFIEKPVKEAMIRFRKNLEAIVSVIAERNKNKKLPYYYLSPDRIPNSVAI
Nature of the experiment: 5-LO activity, RBL-1 supernatant, oxygen consumption. The class given is biochemical. Particulars: RBL-1 supernatant 5-LO enzyme; 10 uM arachidonic acid, 20° C.; read-out: 5-LO IC-50. As to the method:
The 5-lipoxygenase (5-LO) was isolated from extracts of RBL-1 cells. The assay for assessing inhibition of the 5-LO activity was a continuous assay which monitored the consumption of oxygen (O2). The cell extract (100 ug) was preincubated with the inhibitor or its vehicle in 25 mM BisTris buffer (pH 7.0) that contained 1 mM EDTA, 1 mM ATP, 150 mM NaCl and 5% ethylene glycol for 2 minutes at 20° C. (total volume 2.99 ml). Arachidonic acid (10 uM) and CaCl2 (2 mM) were added to start the reaction, and the decrease in O2 concentration followed with time using a Clark-type electrode and the Yellow Spring O2 monitor (type 53) (Yellow Springs, Ohio). The optimum velocity was calculated from the progress curves. All compounds were dissolved in ethanol with the final concentration of ethanol being 1% in the assay. Drug-induced effects on enzyme activities are described as the concentration of drug causing a 50% inhibition of oxygen consumption (IC50).

Experiment [6] concerns LTB4 and 5-HETE production. Particulars: Stenson et al. 1982; cited from earlier work.
The next experiment concerns rheumatoid arthritis. The conditions noted are these: preliminary observation, Neumann et al. 1983; cited from earlier work.
For the next experiment, the system named is psoriasis. Particulars: Allen et al. 1983; cited from earlier work.
The test system of a further experiment is lipoxygenase. The conditions noted are these: cited from earlier work.

As to `NC1=NN(c2cccc(C(F)(F)F)c2)CC1` [BW755-C], the “area of infarction following coronary occlusion” value in the experiment with myocardial infarction is “reduced”.
As for `NC(=O)N(O)C1CCCc2c1ccc1ccccc21` (stereo not shown) [Example 1, N-1-(1,2,3,4-Tetrahydrophenanthrenyl)-N-hydroxyurea], in experiment [1] (0.5 h, mouse whole blood ex vivo, A23187, linear regression, read-out: ED50 (inhibition of 5-LO activity ex vivo)), the ED50 is 2.5 mg/kg. Further, the inhibition at 10 mg/kg in experiment [1] came out at 86%. Moreover, the IC50 in experiment [2] (A23187 2 uM, Table 1, read-out: human monocyte-IC50, LTB4) was 1.6 µM; in [2] (read-out: IC50, production of LTB4 in the human monocyte) it was 1.6 µM; in [3] (A23187 2 uM, Table 1, read-out: human monocyte-IC50, PGE2), more than 30 µM; in experiment [3] (read-out: IC50, production of the prostaglandin PGE2 (human monocyte)), more than 30 µM; in [4] it was more than 10 µM; in experiment [5] it was 4.2 µM. Moreover, the “cyclooxygenase activity as indicated by production of PGE2” value in experiment [3] (result in words) is “did not inhibit cyclooxygenase activity”.
As to `NC(=O)N(O)C1COc2c1ccc1ccccc21` (stereo not shown) [Example 2], the inhibition at 10 mg/kg in [1] is 92%. Further, the IC50 is more than 10 µM in experiment [4] and 5.6 µM in experiment [5].
As for `NC(=O)N(O)C1COc2ccc3ccccc3c21` (stereo not shown) [Example 3], the IC50 in experiment [4] is more than 10 µM; in experiment [5] it was 8 µM.
In the case of `O=C(O)c1cc(/N=N/c2ccc(S(=O)(=O)Nc3ccccn3)cc2)ccc1O` [Sulfasalazine], the “inhibition of LTB4 and 5-HETE production in vitro” value in [6] was “inhibit LTB4 and 5-HETE production in vitro”. Further, the “efficacy in rheumatoid arthritic patients” value in the experiment with rheumatoid arthritis is “efficacy, including remission”.
As to `CC(C(=O)O)c1ccc2oc(-c3ccc(Cl)cc3)nc2c1` (stereo not shown) [benoxaprofen], the effect on psoriasis entry in the experiment with psoriasis is “promising effect”. The “in vitro lipoxygenase inhibitory activity” value in the experiment with lipoxygenase was “in vitro lipoxygenase inhibitory activity”.
